{"source": "patent US20250332167A1", "about": "“PHARMACEUTICAL USE OF CDK 4/6 INHIBITOR” (priority 2021, published 2025)", "key": {"NCI-H1915": {"system": "NCI-H1915", "experiment": "Proliferation inhibition, non-small cell lung cancer cell line NCI-H1915", "type": "cell-based", "conditions": "Homo sapiens, NCI-H1915, 72 h", "procedure": "(§1) Sixteen non-small cell lung cancer cell lines, including NCI-H1792, NCI-H1703, NCI-H441, SNU-761, NCI-H1975, NCI-H358, NCI-H1838, NCI-H1915, A549, SK-MES-1, NCI-H292, PC-9, NCI-H460, NCI-H23, NCI-H1581, and HLF, were used for the proliferation inhibition assay of the present invention compound. […] The cell detection equipment used was In Cell Analyzer 2200 (GE Healthcare).\n(§2) With 60 μM as the initial concentration, ten points were obtained by serial five-fold dilution.\n(§3) Each kind of cell in logarithmic growth phase was inoculated with 4000 cells/100 μl/well into a black transparent bottom 96-well plate and cultured overnight at 37° C. The next day, the plate was taken out, and 20 μL of the prepared sample dilutions was added to each well. The plate was then subjected to treatment at 37° C. for 72 hours. After the treatment period of 72 hours, the plate was taken out and 50 μL of neutral formaldehyde fixative (formaldehyde: PBS=1:9, 50 μl/well) was added to each well. The plate was then fixed at room temperature for 10-30 minutes. Subsequently, the wells were washed twice with 1× PBS (100 μl/well) and treated with 0.2% Triton™-X100 for 5-10 minutes to permeabilize the cells. […] The inhibitory rates of each compound at different concentration points were calculated by using the following formula, and IC50 values were obtained through curve fitting using GraphPad Prism 6.0 software."}, "NCI-H1975": {"system": "NCI-H1975", "experiment": "Proliferation inhibition, non-small cell lung cancer cell line NCI-H1975", "type": "cell-based", "conditions": "Homo sapiens, NCI-H1975, 72 h", "procedure": "as §1, §2, §3"}, "SK-MES-1": {"system": "SK-MES-1", "experiment": "Proliferation inhibition, non-small cell lung cancer cell line SK-MES-1", "type": "cell-based", "conditions": "Homo sapiens, SK-MES-1, 72 h", "procedure": "as §1, §2, §3"}, "NCI-H1703": {"system": "NCI-H1703", "experiment": "Proliferation inhibition, non-small cell lung cancer cell line NCI-H1703", "type": "cell-based", "conditions": "Homo sapiens, NCI-H1703, 72 h", "procedure": "as §1, §2, §3"}, "NCI-H1581": {"system": "NCI-H1581", "experiment": "Proliferation inhibition, non-small cell lung cancer cell line NCI-H1581", "type": "cell-based", "conditions": "Homo sapiens, NCI-H1581, 72 h", "procedure": "as §1, §2, §3"}, "U118MG cells": {"system": "U118MG cells", "experiment": "Proliferation inhibition of human glioblastoma cells U118MG (DAPI cell count, 72 h)", "type": "cell-based", "conditions": "U-118-MG, 72 h treatment", "procedure": "Human glioblastoma cell U118MG was purchased from NANJING COBIOER BIOSCIENCES CO., LTD. […] The cell detection equipment used was the In Cell Analyzer 2200 (GE Healthcare).\nas §2\nMedium for U118 MG is the MEM (low glucose) medium supplemented with 10% FBS, 1% penicillin/streptomycin, 1% sodium pyruvate, and 1% MEM NEAA. U118 MG cells were seeded at a density of 4000 cells/100 μL/well in a 96-well black clear-bottom plate and incubated at 37° C. overnight. The plate was then taken, and 20 μL of the prepared diluted samples was added to the wells. The cells were treated at 37° C. for 72 hours. After 72 hours, the plate was taken, and a neutral formaldehyde fixation solution (formaldehyde:PBS=1:9) was added at 50 μL/well. The cells were fixed at room temperature for 10-30 minutes. The wells were washed twice with 1× PBS (100 μL/well), and then permeabilized with 0.2% Triton™-X100 for 5-10 minutes (100 μL/well). […] The plate was scanned by using an In Cell Analyzer, and the number of cells in each well was analyzed. The inhibition rate of each compound at various concentration points was calculated by using the formula provided. The IC50 values were determined by curve fitting using GraphPad Prism 6.0 software."}, "NCI-H1975 xenograft": {"system": "NCI-H1975 xenograft", "experiment": "Human non-small cell lung cancer NCI-H1975 xenograft mouse model", "type": "in vivo, Balb/c nude mice", "conditions": "for T/C / TGI / Tumor relative volume (x ± S) / Tumor volume (x ± S): 16 days after administration; for Body weight change: Day 20 of treatment", "description": "The formula for calculating tumor volume was: Tumor Volume (mm^3)=½×(a×b^2) (where “a” represents the long diameter and “b” represents the short diameter).\nThe relative tumor growth rate (T/C) is the percentage value of the relative tumor volume or weight between the treatment group and the control group at a certain time point. The calculation formula is as follows: • T/C(%)=TRTV/CRTV×100% (TRTV: Average RTV of the treatment group; CRTV: Average RTV of the Vehicle group; RTV=Vt/V0, where V0 is the tumor volume of the animal at the time of grouping and Vt is the tumor volume of the animal after treatment).\n(T and C are the relative tumor volume (RTV) or weight (TW) of the treatment group and control group at a specific time point, respectively).\nNCI-H1975 cells were cultured in RPMI1640 medium containing 10% fetal bovine serum. Log-phase NCI-H1975 cells were collected, suspended in PBS to an appropriate concentration, and used for subcutaneous tumor implantation in Balb/c nude mice. Each female mouse was implanted with 0.1 ml of NCI-H1975 cells subcutaneously. When the average tumor volume reached 171 mm^3, the mice were randomly divided into groups based on tumor size.\nThe positive control drugs were Palbociclib and Abemaciclib.\nEach group consisted of 8 mice, and oral gavage administration was performed once daily for a total of 21 days. Tumor volume and body weight changes were observed regularly, and efficacy evaluation was conducted based on relative tumor proliferation rate (T/C) and relative tumor growth inhibition rate (TGI). The calculation methods for tumor volume, T/C, and TGI are described in Example 3."}, "[1]": {"conditions": "10 mg/kg oral gavage once daily"}, "[2]": {"conditions": "25 mg/kg oral gavage once daily"}, "[3]": {"conditions": "50 mg/kg oral gavage once daily"}}, "note": "Where “and” joins values, the source holds several entries; their conditions need not be identical. Identical values can stand only once."}
{"smiles": "CC1=Nc2c(F)cc(-c3nc(Nc4ccc(C5CCN(C)CC5)cn4)ncc3F)cc2C12CCCC2.O=C(O)/C=C/C(=O)O", "note": "[Compound A, Fumarate salt of 5-fluoro-4-(7′-fluoro-2′-methylspiro[cyclopentane-1,3′-indol]-5′-yl)-N-(5-(1-methylpiperidin-4-yl)pyridin-2-yl)pyrimidine-2-amine]", "values": [{"measurement": "IC50", "setting": "NCI-H1915", "value": 53, "unit": "nM"}, {"measurement": "IC50", "setting": "NCI-H1975", "value": 10, "unit": "nM"}, {"measurement": "IC50", "setting": "SK-MES-1", "value": 67, "unit": "nM"}, {"measurement": "IC50", "setting": "NCI-H1703", "value": 3, "unit": "nM"}, {"measurement": "IC50", "setting": "NCI-H1581", "value": 1120, "unit": "nM"}, {"measurement": "IC50", "setting": "U118MG cells", "value": "23.2 ± 5.2", "unit": "nM"}, {"measurement": "T/C", "setting": "NCI-H1975 xenograft; 5 mg/kg oral gavage once daily", "value": 85, "unit": "%"}, {"measurement": "TGI", "setting": "NCI-H1975 xenograft; 5 mg/kg oral gavage once daily", "value": 15, "unit": "%"}, {"measurement": "Tumor relative volume (x ± S)", "setting": "NCI-H1975 xenograft; 5 mg/kg oral gavage once daily", "value": "9.8 ± 0.6"}, {"measurement": "Tumor volume (x ± S)", "setting": "NCI-H1975 xenograft; 5 mg/kg oral gavage once daily", "value": "1889 mm^3 and 1889 ± 60 mm^3"}, {"measurement": "T/C", "setting": "NCI-H1975 xenograft; [1]", "value": 72, "unit": "%"}, {"measurement": "TGI", "setting": "NCI-H1975 xenograft; [1]", "value": 28, "unit": "%"}, {"measurement": "Tumor relative volume (x ± S)", "setting": "NCI-H1975 xenograft; [1]", "value": "8.4 ± 1.0"}, {"measurement": "Tumor volume (x ± S)", "setting": "NCI-H1975 xenograft; [1]", "value": "1647 mm^3 and 1647 ± 243 mm^3"}, {"measurement": "T/C", "setting": "NCI-H1975 xenograft; [2]", "value": 50, "unit": "%"}, {"measurement": "TGI", "setting": "NCI-H1975 xenograft; [2]", "value": 50, "unit": "%"}, {"measurement": "Tumor relative volume (x ± S)", "setting": "NCI-H1975 xenograft; [2]", "value": "5.8 ± 0.3"}, {"measurement": "Tumor volume (x ± S)", "setting": "NCI-H1975 xenograft; [2]", "value": "1141 mm^3 and 1141 ± 112 mm^3"}, {"measurement": "Body weight change", "setting": "NCI-H1975 xenograft; [2]", "value": "slight decrease in body weight"}, {"measurement": "T/C", "setting": "NCI-H1975 xenograft; [3]", "value": 31, "unit": "%"}, {"measurement": "TGI", "setting": "NCI-H1975 xenograft; [3]", "value": 69, "unit": "%"}, {"measurement": "Tumor relative volume (x ± S)", "setting": "NCI-H1975 xenograft; [3]", "value": "3.6 ± 0.2"}, {"measurement": "Tumor volume (x ± S)", "setting": "NCI-H1975 xenograft; [3]", "value": "709 mm^3 and 709 ± 47 mm^3"}, {"measurement": "Body weight change", "setting": "NCI-H1975 xenograft; [3]", "value": "slight decrease in body weight"}]}
